The results in this text go back to patent publication US9247741B2, “Use of macrocyclic picolinamides as fungicides” (DOW AGROSCIENCES LLC, priority 2013, dated 2016).

The structures appear in SMILES notation. Read-outs that look alike come from different tables or passages of the source.

Holding throughout (type): in vivo
The subject of one test is Cercospora beticola. The test can be described thus: Leaf spot of sugar beets (CERCBE) disease control. The following applies: 24 h, 1 Day Protectant, sugar beet, read-out: CERCBE disease control rating. As for the experimental part: Technical grades of materials were dissolved in acetone, which were then mixed with nine volumes of water containing 110 ppm Triton X-100. The fungicide solutions were applied onto wheat seedlings using an automated booth sprayer to run-off. All sprayed plants were allowed to air dry prior to further handling. All fungicides were evaluated using the aforementioned method for their activity vs. all target diseases. Wheat leaf blotch and brown rust activity were also evaluated using track spray applications, in which case the fungicides were formulated as EC formulations, containing 0.1% Trycol 5941 in the spray solutions. Wheat plants (variety Yuma) were grown from seed in a greenhouse in 50% mineral soil/50% soil-less Metro mix until the first leaf was fully emerged, with 7-10 seedlings per pot. These plants were inoculated with an aqueous spore suspension of Septoria tritici either prior to or after fungicide treatments. After inoculation the plants were kept in 100% relative humidity (one day in a dark dew chamber followed by two to three days in a lighted dew chamber at 20° C.) to permit spores to germinate and infect the leaf. The plants were then transferred to a greenhouse set at 20° C. for disease to develop. When disease symptoms were fully expressed on the l^st leaves of untreated plants, infection levels were assessed on a scale of 0 to 100 percent disease severity. Percent disease control was calculated using the ratio of disease severity on treated plants relative to untreated plants. Evaluation of Fungicidal Activity: Leaf Spot of Sugar Beets (Cercospora beticola; Bayer Code CERCBE) Sugar beet plants (variety HH88) were grown in soil-less Metro mix and trimmed regularly to maintain a uniform plant size prior to test. Plants were inoculated with a spore suspension 24 hr after fungicide treatments. Inoculated plants were kept in a dew chamber at 22° C. for 48 hr then incubated in a greenhouse set at 24° C. under a clear plastic hood with bottom ventilation until disease symptoms were fully expressed. Fungicide formulation, application and disease assessment on the sprayed leaves followed the procedures as described in the Example A.

The test system of another test is Alternaria solani. As to the kind of experiment: Tomato early blight (ALTESO) disease control. The following applies: 24 h, 1 Day Protectant, read-out: ALTESO disease control rating. As for the experimental part: Technical grades of materials were dissolved in acetone, which were then mixed with nine volumes of water containing 110 ppm Triton X-100. The fungicide solutions were applied onto wheat seedlings using an automated booth sprayer to run-off. All sprayed plants were allowed to air dry prior to further handling. All fungicides were evaluated using the aforementioned method for their activity vs. all target diseases. Wheat leaf blotch and brown rust activity were also evaluated using track spray applications, in which case the fungicides were formulated as EC formulations, containing 0.1% Trycol 5941 in the spray solutions. Wheat plants (variety Yuma) were grown from seed in a greenhouse in 50% mineral soil/50% soil-less Metro mix until the first leaf was fully emerged, with 7-10 seedlings per pot. These plants were inoculated with an aqueous spore suspension of Septoria tritici either prior to or after fungicide treatments. After inoculation the plants were kept in 100% relative humidity (one day in a dark dew chamber followed by two to three days in a lighted dew chamber at 20° C.) to permit spores to germinate and infect the leaf. The plants were then transferred to a greenhouse set at 20° C. for disease to develop. When disease symptoms were fully expressed on the l^st leaves of untreated plants, infection levels were assessed on a scale of 0 to 100 percent disease severity. Percent disease control was calculated using the ratio of disease severity on treated plants relative to untreated plants. Evaluation of Fungicidal Activity: Tomato Early Blight (Alternaria solani; Bayer Code […]) Tomato plants (variety Outdoor girl) were propagated in soil-less Metro mix, with each pot having one plant, and used when 12 to 14 days old. Test plants were inoculated with an aqueous spore suspension of Alternaria solani 24 hr after fungicide treatments. After inoculation the plants were kept in 100% relative humidity (one day in a dark dew chamber followed by two to three days in a lighted dew chamber at 20° C.) to permit spores to germinate and infect the leaf. The plants were then transferred to a growth room at 22° C. for disease to develop. Fungicide formulation, application and disease assessment on the sprayed leaves followed the procedures as described in the Example A.

The next test relates to Puccinia triticina. As to the kind of experiment: Wheat brown rust (PUCCRT) disease control on wheat seedlings. Particulars: for pest or weed control at 121.5 g/ha: 121.5 g/H (low volume track spray); for pest or weed control at 100 ppm: 100 ppm (high volume). As for the experimental part: Technical grades of materials were dissolved in acetone, which were then mixed with nine volumes of water containing 110 ppm Triton X-100. The fungicide solutions were applied onto wheat seedlings using an automated booth sprayer to run-off. All sprayed plants were allowed to air dry prior to further handling. All fungicides were evaluated using the aforementioned method for their activity vs. all target diseases. Wheat leaf blotch and brown rust activity were also evaluated using track spray applications, in which case the fungicides were formulated as EC formulations, containing 0.1% Trycol 5941 in the spray solutions. Wheat plants (variety Yuma) were grown from seed in a greenhouse in 50% mineral soil/50% soil-less Metro mix until the first leaf was fully emerged, with 7-10 seedlings per pot. These plants were inoculated with an aqueous spore suspension of Septoria tritici either prior to or after fungicide treatments. After inoculation the plants were kept in 100% relative humidity (one day in a dark dew chamber followed by two to three days in a lighted dew chamber at 20° C.) to permit spores to germinate and infect the leaf. The plants were then transferred to a greenhouse set at 20° C. for disease to develop. When disease symptoms were fully expressed on the l^st leaves of untreated plants, infection levels were assessed on a scale of 0 to 100 percent disease severity. Percent disease control was calculated using the ratio of disease severity on treated plants relative to untreated plants. Evaluation of Fungicidal Activity: Wheat Brown Rust (Puccinia triticina; Synonym: Puccinia recondite f sp. tritici; Bayer code PUCCRT) Wheat plants (variety Yuma) were grown from seed in a greenhouse in 50% mineral soil/50% soil-less Metro mix until the first leaf was fully emerged, with 7-10 seedlings per pot. These plants were inoculated with an aqueous spore suspension of Puccinia triticina either prior to or after fungicide treatments. After inoculation the plants were kept in a dark dew room at 22° C. with 100% relative humidity overnight to permit spores to germinate and infect the leaf. The plants were then transferred to a greenhouse set at 24° C. for disease to develop. Fungicide formulation, application and disease assessment followed the procedures as described in the Example A.

Setting [1] is: 24 h, 1 Day Protectant, read-out: PUCCRT 1DP disease control rating.
The mark [2] stands for this setting: 72 h, 3 Day Curative, read-out: PUCCRT 3DC disease control rating.

As for `CCCO[C@H]1CCC[C@H](NC(=O)c2nccc(OC)c2OC(C)=O)C(=O)O[C@@H](C)[C@@H]1CCC(C)C` [Compound 74, 2-(((3S,7S,8S,9S)-8-isopentyl-9-methyl-2-oxo-7-propoxyoxonan-3-yl)carbamoyl)-4-methoxypyridin-3-yl acetate], the pest or weed control at 100 ppm with Cercospora beticola and in the test with Alternaria solani was > 70% each time. The pest or weed control at 121.5 g/ha with Puccinia triticina (setting [1]) and in the test on Puccinia triticina (setting [2]) was > 70% in each case.
As to `COc1ccnc(C(=O)N[C@H]2CCC[C@H](Oc3ccccc3)[C@@H](CCC(C)C)[C@H](C)OC2=O)c1OC(C)=O` [Compound 36], the pest or weed control at 100 ppm in the test with Cercospora beticola and in the test with Alternaria solani was > 70% each time. Also, the pest or weed control at 121.5 g/ha is > 70% with Puccinia triticina (setting [1]) and < 70% in the test with Puccinia triticina (setting [2]).
As for `CCCO[C@H]1CCC[C@H](NC(=O)c2nccc(OC)c2OC(C)=O)C(=O)O[C@@H](C)[C@@H]1Cc1ccccc1` [Compound 70], the pest or weed control at 100 ppm in the test with Cercospora beticola, with Alternaria solani, in the test on Puccinia triticina (setting [1]) and with Puccinia triticina (setting [2]) was > 70% in each case. The pest or weed control at 121.5 g/ha in the test with Puccinia triticina (setting [1]) and in the test on Puccinia triticina (setting [2]) was > 70% throughout.
As to `CCCC[C@H]1[C@H](C)OC(=O)[C@@H](NC(=O)c2nccc(OC)c2OCOC(C)=O)CCC[C@@H]1OCC1CC1` [Compound 73], the pest or weed control at 100 ppm is > 70% in the test with Cercospora beticola and < 70% with Alternaria solani. The pest or weed control at 121.5 g/ha in the test on Puccinia triticina (setting [1]) and with Puccinia triticina (setting [2]) was > 70% throughout.
`CCCC[C@H]1[C@H](C)OC(=O)[C@@H](NC(=O)c2nccc(OC)c2OCOC(C)=O)CCC[C@@H]1Oc1ccccc1` [Compound 33]: the pest or weed control at 100 ppm in the test with Cercospora beticola and in the test on Alternaria solani was > 70% throughout. Besides, the pest or weed control at 121.5 g/ha in the test on Puccinia triticina (setting [1]) and with Puccinia triticina (setting [2]) was > 70% in each case.
With `CCCO[C@H]1CCC[C@H](NC(=O)c2nccc(OC)c2OCOC(C)=O)C(=O)O[C@@H](C)[C@@H]1CCC(C)C` [Compound 25, ((2-(((3S,7S,8S,9S)-8-isopentyl-9-methyl-2-oxo-7-propoxyoxonan-3-yl)carbamoyl)-4-methoxypyridin-3-yl)oxy)methyl acetate], the pest or weed control at 100 ppm in the test with Cercospora beticola and with Alternaria solani was > 70% each time. The pest or weed control at 121.5 g/ha in the test on Puccinia triticina (setting [1]) and in the test on Puccinia triticina (setting [2]) was > 70% throughout.
Turning to `COc1ccnc(C(=O)N[C@H]2CCC[C@H](Oc3ccccc3)[C@@H](CCC(C)C)[C@H](C)OC2=O)c1OCOC(C)=O` [Compound 40], the pest or weed control at 100 ppm with Cercospora beticola and in the test with Alternaria solani was > 70% throughout. Further, the pest or weed control at 121.5 g/ha with Puccinia triticina (setting [1]) and in the test with Puccinia triticina (setting [2]) was > 70% throughout.
`COc1ccnc(C(=O)N[C@H]2CCC[C@H](OCC3CC3)[C@@H](Cc3ccc(F)cc3)[C@H](C)OC2=O)c1OCOC(C)=O` [Compound 61]: the figures for the pest or weed control at 100 ppm in the test on Cercospora beticola and in the test with Alternaria solani were > 70% and < 70%, respectively. The pest or weed control at 121.5 g/ha with Puccinia triticina (setting [1]) and with Puccinia triticina (setting [2]) was > 70% in each case.
